Assay results: patent US8455520B2, “Soluble epoxide hydrolase inhibitors, compositions containing such compounds and methods of treatment” (Merck Sharp & Dohme Corp., priority 2007, dated 2013)

target: T1, human sEH enzyme (Homo sapiens, UniProt P34913); test: sEH human enzyme assay (fluorescence based enzyme in vitro assay); type: biochemical; conditions: recombinant human sEH about 1 nM, fluorescence substrate S7 10 uM, pH7.0, 25° C.; read-out: IC50 [nM] for human sEH enzyme inhibition
T1 construct: His-tag (N, cleaved yes); made in house; host or cells: E. coli
T1 sequence (P34913 1-555): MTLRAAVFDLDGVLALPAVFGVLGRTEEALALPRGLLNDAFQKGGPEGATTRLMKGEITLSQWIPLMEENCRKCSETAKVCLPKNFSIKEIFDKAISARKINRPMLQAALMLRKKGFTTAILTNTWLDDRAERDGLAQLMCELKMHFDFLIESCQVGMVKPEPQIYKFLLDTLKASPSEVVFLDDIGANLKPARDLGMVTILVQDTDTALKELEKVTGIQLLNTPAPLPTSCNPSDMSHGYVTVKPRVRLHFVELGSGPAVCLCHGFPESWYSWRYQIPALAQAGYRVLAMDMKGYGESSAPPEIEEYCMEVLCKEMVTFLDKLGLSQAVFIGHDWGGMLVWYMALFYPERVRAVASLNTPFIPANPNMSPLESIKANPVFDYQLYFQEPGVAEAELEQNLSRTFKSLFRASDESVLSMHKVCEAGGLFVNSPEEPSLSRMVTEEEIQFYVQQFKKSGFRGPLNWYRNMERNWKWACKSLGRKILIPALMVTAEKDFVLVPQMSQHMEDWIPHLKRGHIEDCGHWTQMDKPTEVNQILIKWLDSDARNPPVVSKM
From the text: Preparation of Recombinant sEH Human Enzyme
The DNA for expressing sEH was designed based on a […] sEH cDNA. Necessary Modifications were introduced to optimize for its expression both in E. coli and insect cells. The designed DNA fragment encodes a protein sequence that is identical to full length human sEH, and the DNA was synthesized in vitro. The DNA was then subcloned into the pET100 vector that will generate a fusion protein with an N-terminal His-tag. The recombinant protein was expressed in E. coli. The sEH enzyme was affinity purified by a Ni^++ column. His-tag was removed by Enter Kinase (EK) digestion. The purified enzyme aliquots were frozen and held at −80° C. for later use.
Fluorescence Based Enzyme In Vitro Assay
For each assay (100 ul), an aliquot of enzymes (about 1 nM final concentration) was incubated with a fluorescence substrate, S7 (10 uM final concentration), in sEH assay buffer (25 mM HEPES, pH7.0, 0.1 mg/ml BSA) in a 96-well plate. The kinetic reaction reading (Ex330/Em465) was conducted using a plate reader, Spectra max (Molecular Devices) at 25° C.

IC50, 341 nM:
CC1(c2ccccc2)CCCN(C(=O)Nc2nnc(-c3ccccc3)s2)C1 (stereo not drawn) [Example 12]

IC50, 306 nM:
CC1(c2ccccc2)CCCN(C(=O)Nc2cccnc2)C1 (stereo not drawn) [Example 32]

IC50, 30 nM:
CC1(c2ccccc2)CCCN(C(=O)NCc2nc3ccccc3s2)C1 (stereo not drawn) [Example 38]

IC50, 10 nM:
CC1(c2ccccc2)CCCN(C(=O)NC2C3CC4CC(C3)CC2C4)C1 (stereo not drawn) [Example 29]

IC50, 2 nM:
O=C(Nc1ccc(Cl)cc1)N1CCCC(COCc2cc(C(F)(F)F)cc(C(F)(F)F)c2)(c2ccccc2)C1 (stereo not drawn) [Example 1]
O=C(Nc1ccc(C(F)(F)F)cc1)N1CCCC(CO)(Cc2ccccc2)C1 (stereo not drawn) [Example 14]
N#CC1(Cc2ccccc2)CCCN(C(=O)Nc2ccc(C(F)(F)F)cc2)C1 (stereo not drawn) [Example 17]
O=C(Nc1ccc(C(F)(F)F)cc1)N1CCCC(Cc2ccccn2)(C(=O)OCc2ccccc2)C1 (stereo not drawn) [Example 23]
CC1(c2ccccc2)CCCN(C(=O)NCC2CCc3ccccc3C2)C1 (stereo not drawn) [Example 35]
CC1(c2ccccc2)CCCN(C(=O)NC2CCc3ccccc3CC2)C1 (stereo not drawn) [Example 37]

IC50, < 1 nM:
O=C(Nc1ccc(Cl)cc1)N1CCCC(Cc2ccc(Cl)cc2)(c2ccccc2)C1 (stereo not drawn) [Example 5]
COC(=O)CCC1(c2ccc(F)cc2)CCCN(C(=O)NCCCc2ccccc2)C1 (stereo not drawn) [Example 7]
CCOC(=O)C1(Cc2c(Cl)cccc2Cl)CCCN(C(=O)Nc2ccc(C(F)(F)F)cc2)C1 (stereo not drawn) [Example 9]
O=C(Nc1ccc(C(F)(F)F)cc1)N1CCCC(Cc2ccccc2)(C(=O)NCCc2c[nH]c3ccccc23)C1 (stereo not drawn) [Example 20]
CC1(c2ccccc2)CCCN(C(=O)NCCc2ccc(Cl)cc2)C1 (stereo not drawn) [Example 30]
COC(=O)CCCC1(c2ccccc2)CCCN(C(=O)Nc2ccc(Cl)cc2)C1 (stereo not drawn) [Example 51]

IC50, 3 nM:
COC(=O)CCC1(c2ccccc2)CCCN(C(=O)Nc2ccc(-n3nc(C(F)(F)F)cc3C(F)(F)F)cc2)C1 (stereo not drawn) [Example 10]
O=C(O)CCC1(c2ccccc2)CCCN(C(=O)Nc2ccc(-n3nc(C(F)(F)F)cc3C(F)(F)F)cc2)C1 (stereo not drawn) [Example 11]
CCOC(=O)C1(Cc2cccc3ccccc23)CCCN(C(=O)Nc2ccc(C(F)(F)F)cc2)C1 (stereo not drawn) [Example 21]
CCOC(=O)C1(Cc2nc3ccccc3[nH]2)CCCN(C(=O)Nc2ccc(C(F)(F)F)cc2)C1 (stereo not drawn) [Example 22]
CN(C)C(=O)C1(Cc2ccccc2)CCCN(C(=O)Nc2ccc(C(F)(F)F)cc2)C1 (stereo not drawn) [Example 25]
CC1(c2ccccc2)CCCN(C(=O)NCc2ccc(-c3cccc4cnccc34)cc2)C1 (stereo not drawn) [Example 44]
N#CCCC1(c2ccccc2)CCCN(C(=O)Nc2ccc(Cl)cc2)C1 (stereo not drawn) [Example 46]

IC50, 8 nM:
O=C(O)CCC1(c2ccc(-c3ccccc3)cc2)CCCN(C(=O)Nc2ccc(OC(F)(F)F)cc2)C1 (stereo not drawn) [Example 6]

IC50, 6 nM:
O=C(O)CCC1(c2ccc(F)cc2)CCCN(C(=O)NCCCc2ccccc2)C1 (stereo not drawn) [Example 8]
CNC(=O)C1(Cc2ccccc2)CCCN(C(=O)Nc2ccc(C(F)(F)F)cc2)C1 (stereo not drawn) [Example 16]
CC1(c2ccccc2)CCCN(C(=O)NCCCc2cccnc2)C1 (stereo not drawn) [Example 33]
CC1(c2ccccc2)CCCN(C(=O)NCc2ccc(-c3ccccc3Cl)cc2)C1 (stereo not drawn) [Example 40]
CC1(c2ccccc2)CCCN(C(=O)NCc2ccc(-c3ccc4cn[nH]c4c3)cc2)C1 (stereo not drawn) [Example 43]

IC50, 7 nM:
CC1(c2ccccc2)CCCN(C(=O)NC[C@H]2C[C@@H]2c2ccccc2)C1 (stereo in doubt) [Example 28]
CCOC(=O)C1(Cc2nccn2Cc2ccccc2)CCCN(C(=O)Nc2ccc(C(F)(F)F)cc2)C1 (stereo not drawn) [Example 24]
CC1(c2ccccc2)CCCN(C(=O)NCc2ccc(-c3ccc4[nH]ccc4c3)cc2)C1 (stereo not drawn) [Example 42]

IC50, 5 nM:
O=C(O)CCC1(c2ccccc2)CCCN(C(=O)Nc2ccc(Cl)cc2)C1 (stereo not drawn) [Example 3]
CC1N(C(=O)Nc2ccc(Cl)cc2)CCCC1(C)c1ccccc1 (stereo not drawn) [Example 4]
O=C(NC1(Cc2ccccc2)CCCN(C(=O)Nc2ccc(C(F)(F)F)cc2)C1)OCc1ccccc1 (stereo not drawn) [Example 15]
O=C(NCc1ccc(Cl)c(Cl)c1)N1CCCC(CCc2noc(C(F)(F)F)n2)(c2ccccc2)C1 (stereo not drawn) [Example 18]
CC1(c2ccccc2)CCCN(C(=O)NCCc2ccc3nccnc3c2)C1 (stereo not drawn) [Example 34]
NC(=O)CCC1(c2ccccc2)CCCN(C(=O)Nc2ccc(Cl)cc2)C1 (stereo not drawn) [Example 45]
O=C(Nc1ccc(Cl)cc1)N1CCCC(CCc2nnn[nH]2)(c2ccccc2)C1 (stereo not drawn) [Example 47]
Cc1nc(C2(C)CCCN(C(=O)Nc3ccc(C(F)(F)F)cc3)C2)no1 (stereo not drawn) [Example 49]
CNC(=O)CCC1(c2ccccc2)CCCN(C(=O)Nc2ccc(Cl)cc2)C1 (stereo not drawn) [Example 50]

IC50, 59 nM:
CC1(c2ccccc2)CCCN(C(=O)Nc2noc3ccccc23)C1 (stereo not drawn) [Example 13]

IC50, 1.5 nM:
CC1(c2ccccc2)CCCN(C(=O)NCc2ccc(-c3cccnc3)cc2)C1 (stereo not drawn) [Example 41]

IC50, 12 nM:
O=C(O)CCCC1(c2ccccc2)CCCN(C(=O)Nc2ccc(Cl)cc2)C1 (stereo not drawn) [Example 52]

IC50, 1 nM:
CC1(c2ccccc2)CCCN(C(=O)NC2CC2c2ccccc2)C1 (stereo not drawn) [Example 27]
CC1(c2ccccc2)CCCN(C(=O)NCCCCc2ccccc2)C1 (stereo not drawn) [Example 31]
CC1(c2ccccc2)CCCN(C(=O)NC2CCc3ccccc3C2)C1 (stereo not drawn) [Example 36]
O=C(CCC1(c2ccccc2)CCCN(C(=O)Nc2ccc(Cl)cc2)C1)Nc1nnn[nH]1 (stereo not drawn) [Example 48]
